The results in this text go back to patent US10221197B2, “Phosphatidylinositol 3-kinase inhibitors” (Gilead Sciences, Inc., priority 2014, dated 2019).

Holding throughout (type): biochemical
The target in assay [1] is PI3Kδ (Homo sapiens (Human), UniProt O00329). Nature of the assay: TR-FRET enzymatic assay of PI3K isoforms (PI3Kδ). The conditions noted are these: 2×Km ATP, 2 μM PIP2, incubated for 30 minutes at 25° C., read-out: δ IC50. On the procedure: (§1) The compounds of formula (I) were characterized for their enzymatic activity against the PI3K isoforms. Certain compounds of the present application, including certain compounds of formula (II) and (III) were also characterized for their enzymatic activity against PI3K isoforms. The activities were measured using a time-resolved fluorescence resonance energy transfer (TR-FRET) assay.
PI3Kδ, sequence (O00329 whole entry, canonical isoform): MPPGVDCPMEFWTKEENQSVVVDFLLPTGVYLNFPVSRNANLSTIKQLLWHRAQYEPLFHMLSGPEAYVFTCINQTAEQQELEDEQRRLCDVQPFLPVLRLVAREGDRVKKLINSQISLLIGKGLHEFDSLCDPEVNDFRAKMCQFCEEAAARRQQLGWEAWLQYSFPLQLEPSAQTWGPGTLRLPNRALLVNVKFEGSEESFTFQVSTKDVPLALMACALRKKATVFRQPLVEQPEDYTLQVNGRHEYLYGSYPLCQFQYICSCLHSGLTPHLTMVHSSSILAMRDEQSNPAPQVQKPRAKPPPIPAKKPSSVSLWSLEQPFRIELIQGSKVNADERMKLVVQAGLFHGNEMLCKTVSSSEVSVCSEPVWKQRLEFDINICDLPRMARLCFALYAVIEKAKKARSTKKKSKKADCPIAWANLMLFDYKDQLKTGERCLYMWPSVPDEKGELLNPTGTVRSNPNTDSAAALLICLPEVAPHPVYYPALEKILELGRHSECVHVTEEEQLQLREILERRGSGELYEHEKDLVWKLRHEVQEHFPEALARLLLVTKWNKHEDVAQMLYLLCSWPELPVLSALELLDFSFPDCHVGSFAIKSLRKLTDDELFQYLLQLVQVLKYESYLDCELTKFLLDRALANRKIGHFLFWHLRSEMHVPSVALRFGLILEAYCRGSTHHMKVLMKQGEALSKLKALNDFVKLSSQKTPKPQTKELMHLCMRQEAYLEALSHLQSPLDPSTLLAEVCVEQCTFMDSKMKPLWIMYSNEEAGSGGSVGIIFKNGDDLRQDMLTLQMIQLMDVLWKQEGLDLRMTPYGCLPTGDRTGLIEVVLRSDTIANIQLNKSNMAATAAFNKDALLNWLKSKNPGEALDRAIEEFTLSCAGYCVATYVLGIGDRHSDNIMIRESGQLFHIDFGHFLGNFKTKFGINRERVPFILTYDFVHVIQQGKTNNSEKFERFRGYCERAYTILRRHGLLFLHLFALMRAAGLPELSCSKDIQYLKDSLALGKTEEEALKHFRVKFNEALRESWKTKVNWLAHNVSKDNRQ
PI3Kδ, sequence (P27986 whole entry partner, canonical isoform): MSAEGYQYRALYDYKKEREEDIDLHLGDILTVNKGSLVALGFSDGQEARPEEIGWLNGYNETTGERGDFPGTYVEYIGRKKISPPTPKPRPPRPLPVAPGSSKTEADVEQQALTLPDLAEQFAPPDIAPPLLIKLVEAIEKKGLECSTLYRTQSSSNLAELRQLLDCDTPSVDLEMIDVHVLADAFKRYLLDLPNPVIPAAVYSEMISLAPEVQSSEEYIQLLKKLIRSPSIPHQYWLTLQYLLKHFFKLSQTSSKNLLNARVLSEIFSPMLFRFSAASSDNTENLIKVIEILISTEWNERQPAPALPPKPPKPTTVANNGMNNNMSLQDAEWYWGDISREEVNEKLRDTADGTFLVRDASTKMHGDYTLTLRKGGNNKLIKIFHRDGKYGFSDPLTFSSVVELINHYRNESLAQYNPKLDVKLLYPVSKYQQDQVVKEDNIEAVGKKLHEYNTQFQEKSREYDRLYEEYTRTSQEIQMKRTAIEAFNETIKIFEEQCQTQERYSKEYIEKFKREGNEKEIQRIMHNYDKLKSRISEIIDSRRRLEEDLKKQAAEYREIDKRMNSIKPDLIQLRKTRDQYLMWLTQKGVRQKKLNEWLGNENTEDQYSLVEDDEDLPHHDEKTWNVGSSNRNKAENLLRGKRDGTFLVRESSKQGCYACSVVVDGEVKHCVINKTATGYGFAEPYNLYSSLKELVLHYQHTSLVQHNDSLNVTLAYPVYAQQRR
A general note: In TR-FRET formats the signal depends on donor and acceptor labels being close together.

For assay [2], the target named is PI3Kβ (Homo sapiens (Human), UniProt P42338). Nature of the assay: TR-FRET enzymatic assay of PI3K isoforms (PI3Kβ). The conditions noted are these: TR-FRET, 2×Km ATP, 2 μM PIP2, incubated for 30 minutes at 25° C.; read-out: β IC50. The procedure:
as §1

Assay [3] deals with PI3Kγ (Homo sapiens (Human), UniProt P48736). Briefly: TR-FRET enzymatic assay of PI3K isoforms (PI3Kγ). The following applies: read-out: γ IC50. The procedure:
as §1

The mark [4] stands for this setting: TR-FRET, 2×Km ATP, 2 μM PIP2, PI3Kγ at 2 nM, incubated for 30 minutes at 25° C.

Counter-ions that a name gives are not always drawn. Like-named read-outs stand apart in the source and are kept apart here.

PI3Kβ, sequence (P42338 whole entry, canonical isoform): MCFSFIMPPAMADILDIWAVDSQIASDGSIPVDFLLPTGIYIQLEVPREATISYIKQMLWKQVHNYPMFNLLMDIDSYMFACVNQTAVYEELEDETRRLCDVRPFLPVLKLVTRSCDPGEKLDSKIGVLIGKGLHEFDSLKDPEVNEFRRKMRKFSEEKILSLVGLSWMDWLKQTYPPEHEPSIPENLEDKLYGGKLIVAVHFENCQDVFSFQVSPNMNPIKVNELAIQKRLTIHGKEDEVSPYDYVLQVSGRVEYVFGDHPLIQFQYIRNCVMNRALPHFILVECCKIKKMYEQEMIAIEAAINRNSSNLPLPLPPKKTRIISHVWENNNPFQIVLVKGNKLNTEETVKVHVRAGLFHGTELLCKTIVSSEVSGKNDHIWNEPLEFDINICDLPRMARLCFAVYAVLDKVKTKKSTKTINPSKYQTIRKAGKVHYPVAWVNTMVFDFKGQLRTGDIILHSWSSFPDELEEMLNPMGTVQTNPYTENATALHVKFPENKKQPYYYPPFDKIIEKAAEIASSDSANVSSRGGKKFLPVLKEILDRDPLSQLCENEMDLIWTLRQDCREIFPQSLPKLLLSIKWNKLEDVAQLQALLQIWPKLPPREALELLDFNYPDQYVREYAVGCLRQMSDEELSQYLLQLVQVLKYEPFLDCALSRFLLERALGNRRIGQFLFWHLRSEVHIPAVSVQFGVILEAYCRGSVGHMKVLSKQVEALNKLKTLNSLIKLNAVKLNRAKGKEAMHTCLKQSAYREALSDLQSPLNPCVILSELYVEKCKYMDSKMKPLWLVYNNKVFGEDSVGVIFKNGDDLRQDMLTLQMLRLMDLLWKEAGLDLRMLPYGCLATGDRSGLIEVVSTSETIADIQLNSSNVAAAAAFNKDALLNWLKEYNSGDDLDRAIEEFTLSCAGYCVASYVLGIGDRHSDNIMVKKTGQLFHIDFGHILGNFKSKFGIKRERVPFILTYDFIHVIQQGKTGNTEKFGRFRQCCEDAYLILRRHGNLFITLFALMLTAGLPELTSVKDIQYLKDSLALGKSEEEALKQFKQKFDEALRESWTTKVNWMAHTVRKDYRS
PI3Kβ, sequence (P27986 whole entry partner, canonical isoform): as the sequence (P27986 whole entry partner, canonical isoform) above
PI3Kγ, sequence (P48736 whole entry, canonical isoform): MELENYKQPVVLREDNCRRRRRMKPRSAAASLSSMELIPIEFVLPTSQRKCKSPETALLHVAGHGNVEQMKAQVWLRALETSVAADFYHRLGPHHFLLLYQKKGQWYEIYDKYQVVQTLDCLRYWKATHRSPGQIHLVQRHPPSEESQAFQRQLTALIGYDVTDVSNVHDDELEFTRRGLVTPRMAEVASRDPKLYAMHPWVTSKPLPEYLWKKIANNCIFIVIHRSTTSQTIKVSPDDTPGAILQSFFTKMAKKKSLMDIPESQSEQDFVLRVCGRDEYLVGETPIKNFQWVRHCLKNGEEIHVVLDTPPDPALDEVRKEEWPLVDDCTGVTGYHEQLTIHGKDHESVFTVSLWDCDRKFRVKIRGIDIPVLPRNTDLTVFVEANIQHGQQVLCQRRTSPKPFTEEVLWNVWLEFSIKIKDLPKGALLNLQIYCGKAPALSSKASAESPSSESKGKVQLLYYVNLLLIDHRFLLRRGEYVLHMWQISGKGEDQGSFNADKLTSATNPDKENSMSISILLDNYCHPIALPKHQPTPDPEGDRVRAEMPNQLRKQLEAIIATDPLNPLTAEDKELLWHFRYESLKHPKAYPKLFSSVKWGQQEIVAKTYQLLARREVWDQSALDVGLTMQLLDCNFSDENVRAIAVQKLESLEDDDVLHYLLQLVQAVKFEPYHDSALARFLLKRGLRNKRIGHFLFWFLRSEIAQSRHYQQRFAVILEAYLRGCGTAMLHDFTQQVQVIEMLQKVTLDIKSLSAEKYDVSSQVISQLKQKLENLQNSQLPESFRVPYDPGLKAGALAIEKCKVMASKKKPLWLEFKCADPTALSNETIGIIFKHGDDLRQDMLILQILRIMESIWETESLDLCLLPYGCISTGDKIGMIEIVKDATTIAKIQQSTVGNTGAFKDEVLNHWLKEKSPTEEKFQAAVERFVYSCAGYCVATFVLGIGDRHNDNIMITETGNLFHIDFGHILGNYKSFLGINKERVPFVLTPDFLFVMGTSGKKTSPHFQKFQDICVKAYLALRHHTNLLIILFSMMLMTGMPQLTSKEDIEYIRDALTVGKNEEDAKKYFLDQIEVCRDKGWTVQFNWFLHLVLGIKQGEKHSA
PI3Kγ, sequence (Q8WYR1 whole entry partner, canonical isoform): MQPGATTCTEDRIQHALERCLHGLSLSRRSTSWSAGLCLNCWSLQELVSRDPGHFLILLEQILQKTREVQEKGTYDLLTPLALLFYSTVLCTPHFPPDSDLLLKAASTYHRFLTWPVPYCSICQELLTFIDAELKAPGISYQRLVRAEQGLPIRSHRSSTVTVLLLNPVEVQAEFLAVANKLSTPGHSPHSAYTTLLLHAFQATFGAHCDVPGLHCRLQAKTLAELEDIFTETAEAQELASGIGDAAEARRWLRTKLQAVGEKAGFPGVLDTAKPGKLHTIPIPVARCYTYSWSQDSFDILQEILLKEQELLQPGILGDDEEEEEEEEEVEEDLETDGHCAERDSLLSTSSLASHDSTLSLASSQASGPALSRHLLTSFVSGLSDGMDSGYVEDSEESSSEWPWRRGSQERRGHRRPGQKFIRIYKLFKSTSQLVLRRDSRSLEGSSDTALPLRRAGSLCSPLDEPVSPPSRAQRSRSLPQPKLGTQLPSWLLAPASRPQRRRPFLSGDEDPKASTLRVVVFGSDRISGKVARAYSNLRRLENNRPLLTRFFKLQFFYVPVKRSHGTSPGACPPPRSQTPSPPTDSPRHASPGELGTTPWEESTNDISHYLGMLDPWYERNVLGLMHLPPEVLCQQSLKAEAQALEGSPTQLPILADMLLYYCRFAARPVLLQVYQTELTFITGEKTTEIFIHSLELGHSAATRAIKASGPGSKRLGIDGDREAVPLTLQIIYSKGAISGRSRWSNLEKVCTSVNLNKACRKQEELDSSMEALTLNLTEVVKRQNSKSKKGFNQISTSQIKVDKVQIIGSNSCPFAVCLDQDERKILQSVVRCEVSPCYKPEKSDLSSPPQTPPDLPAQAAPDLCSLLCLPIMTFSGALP

In general, IC50 refers to the concentration that gives 50% inhibition. Regarding `CCNC(=O)Nc1cccc(-n2c([C@@H]3CCCN3c3ncnc(N)c3C#N)nc3cccc(Cl)c3c2=O)c1` [Compound 83, (S)-1-(3-(2-(1-(6-amino-5-cyanopyrimidin-4-yl)pyrrolidin-2-yl)-5-chloro-4-oxoquinazolin-3(4H)-yl)phenyl)-3-ethylurea], the IC50 amounted to 9 nM in assay [1], 13 nM in assay [2] and 3300 nM in assay [3] (setting [4]).

On to `C[C@H](Nc1ncnc2[nH]cnc12)c1nc2cccc(Cl)c2c(=O)n1-c1cccc(NC(N)=O)c1` [Compound 86, (S)-1-(3-(2-(1-((9H-purin-6-yl)amino)ethyl)-5-chloro-4-oxoquinazolin-3(4H)-yl)phenyl)urea], for which the IC50 in assay [1] was 19 nM; in assay [2], 22 nM; in assay [3] (setting [4]), 4300 nM.

On to `CNC(=O)Nc1cccc(-n2c([C@H](C)Nc3ncnc4[nH]cnc34)nc3cccc(Cl)c3c2=O)c1` [Compound 87, (S)-1-(3-(2-(1-((9H-purin-6-yl)amino)ethyl)-5-chloro-4-oxoquinazolin-3(4H)-yl)phenyl)-3-methylurea], for which the results for the IC50 in assay [1], in assay [2] and in assay [3] (setting [4]) were 33 nM, 21 nM and 4500 nM, respectively.

For `C[C@H](Nc1ncnc(N)c1C#N)c1nc2cccc(Cl)c2c(=O)n1-c1cccc(NC(N)=O)c1` [Compound 88, (S)-1-(3-(2-(1-((6-amino-5-cyanopyrimidin-4-yl)amino)ethyl)-5-chloro-4-oxoquinazolin-3(4H)-yl)phenyl)urea], the IC50 in assay [1] worked out at 2 nM; in assay [2], 4 nM; in assay [3] (setting [4]), 2700 nM.

On to `CNC(=O)Nc1cccc(-n2c([C@H](C)Nc3ncnc(N)c3C#N)nc3cccc(Cl)c3c2=O)c1` [Compound 89, (S)-1-(3-(2-(1-((6-amino-5-cyanopyrimidin-4-yl)amino)ethyl)-5-chloro-4-oxoquinazolin-3(4H)-yl)phenyl)-3-methylurea], for which the IC50 in assay [1] was 6 nM; in assay [2], 6 nM; in assay [3] (setting [4]), 4300 nM.

For `CCNC(=O)Nc1cccc(-n2c([C@H](C)Nc3ncnc4[nH]cnc34)nc3cccc(Cl)c3c2=O)c1` [Compound 91, (S)-1-(3-(2-(1-((9H-purin-6-yl)amino)ethyl)-5-chloro-4-oxoquinazolin-3(4H)-yl)phenyl)-3-ethylurea], the IC50 in assay [1] worked out at 19 nM; in assay [2], 32 nM; in assay [3] (setting [4]) it was 1400 nM.

As to `CCNC(=O)Nc1cccc(-n2c([C@H](C)Nc3ncnc(N)c3C#Cc3ccccn3)nc3cccc(Cl)c3c2=O)c1` [Compound 92], the IC50 in assay [1] is 1 nM; in assay [2], 16 nM; in assay [3] (setting [4]), 1600 nM.

As to `CCNC(=O)Nc1cccc(-n2c([C@H](C)Nc3nc(C)nc(N)n3)nc3cccc(Cl)c3c2=O)c1` [Compound 93, (S)-1-(3-(2-(1-((4-amino-6-methyl-1,3,5-triazin-2-yl)amino)ethyl)-5-chloro-4-oxoquinazolin-3(4H)-yl)phenyl)-3-ethylurea], the values for the IC50 in assay [1], in assay [2] and in assay [3] (setting [4]) were 110 nM, 70 nM and 3700 nM, respectively.

Turning to `C[C@H](Nc1ncnc(N)c1C#N)c1nc2cccc(Cl)c2c(=O)n1-c1cccc(NC(=O)Nc2ccccc2C(=O)O)c1` [Compound 96, (S)-2-(3-(3-(2-(1-((6-amino-5-cyanopyrimidin-4-yl)amino)ethyl)-5-chloro-4-oxoquinazolin-3(4H)-yl)phenyl)ureido)benzoic acid], the IC50 in assay [1] came to 5 nM; in assay [2] it was 230 nM; in assay [3] (setting [4]), 2600 nM.

As to `C[C@H](Nc1ncnc(N)c1C#N)c1nc2cccc(Cl)c2c(=O)n1-c1cccc(NC(=O)Nc2ccccc2S(=O)(=O)O)c1` [Compound 97, (S)-2-(3-(3-(2-(1-((6-amino-5-cyanopyrimidin-4-yl)amino)ethyl)-5-chloro-4-oxoquinazolin-3(4H)-yl)phenyl)ureido)benzenesulfonic acid], the IC50 in assay [1] stood at 5 nM; in assay [2], 120 nM; in assay [3] (setting [4]) it was 6000 nM.

With `C[C@H](Nc1ncnc(N)c1C#N)c1nc2cccc(Cl)c2c(=O)n1-c1cccc(NC(=O)Nc2ccccc2OCC(=O)O)c1` [Compound 98, (S)-2-(2-(3-(3-(2-(1-((6-amino-5-cyanopyrimidin-4-yl)amino)ethyl)-5-chloro-4-oxoquinazolin-3(4H)-yl)phenyl)ureido)phenoxy)acetic acid], the results for the IC50 in assay [1], in assay [2] and in assay [3] (setting [4]) were 29 nM, 58 nM and 3300 nM, respectively.

For `C[C@H](Nc1ncnc(N)c1C#N)c1nc2cccc(Cl)c2c(=O)n1-c1cccc(NC(=O)Nc2ccc(Cl)c(C(F)(F)F)c2)c1` [Compound 99, (S)-1-(3-(2-(1-((6-amino-5-cyanopyrimidin-4-yl)amino)ethyl)-5-chloro-4-oxoquinazolin-3(4H)-yl)phenyl)-3-(4-chloro-3-(trifluoromethyl)phenyl)urea], the results for the IC50 in assay [1], in assay [2] and in assay [3] (setting [4]) were 19 nM, 8 nM and 1600 nM, respectively.

For the compound `C[C@H](Nc1ncnc(N)c1C#N)c1nc2cccc(Cl)c2c(=O)n1-c1cccc(NC(=O)Nc2ccccc2Cl)c1` [Compound 100, (S)-1-(3-(2-(1-((6-amino-5-cyanopyrimidin-4-yl)amino)ethyl)-5-chloro-4-oxoquinazolin-3(4H)-yl)phenyl)-3-(2-chlorophenyl)urea], the IC50 in assay [1] was found to be 3 nM; in assay [2], 1 nM; in assay [3] (setting [4]), 1400 nM.

`C[C@H](Nc1ncnc(N)c1C#N)c1nc2cccc(Cl)c2c(=O)n1-c1cccc(NC(=O)Nc2ccccc2C(F)(F)F)c1` [Compound 101, (S)-1-(3-(2-(1-((6-amino-5-cyanopyrimidin-4-yl)amino)ethyl)-5-chloro-4-oxoquinazolin-3(4H)-yl)phenyl)-3-(2-(trifluoromethyl)phenyl)urea]: the IC50 in assay [1] is 13 nM; in assay [2] it was 5 nM; in assay [3] (setting [4]), 2500 nM.

For `C[C@H](Nc1ncnc2[nH]cnc12)c1nc2cccc(Cl)c2c(=O)n1-c1cccc(NC(=O)Nc2ccccc2C(F)(F)F)c1` [Compound 102, (S)-1-(3-(2-(1-((9H-purin-6-yl)amino)ethyl)-5-chloro-4-oxoquinazolin-3(4H)-yl)phenyl)-3-(2-(trifluoromethyl)phenyl)urea], the figures for the IC50 in assay [1], in assay [2] and in assay [3] (setting [4]) were 31 nM, 7 nM and 670 nM, respectively.

In the case of `C[C@H](Nc1ncnc2[nH]cnc12)c1nc2cccc(Cl)c2c(=O)n1-c1cccc(NC(=O)Nc2c(Cl)cccc2Cl)c1` [Compound 104, (S)-1-(3-(2-(1-((9H-purin-6-yl)amino)ethyl)-5-chloro-4-oxoquinazolin-3(4H)-yl)phenyl)-3-(2,6-dichlorophenyl)urea], the IC50 in assay [1] stood at 30 nM; in assay [2], 8 nM; in assay [3] (setting [4]) it was 740 nM.

For `C[C@H](Nc1ncnc(N)c1C#N)c1nc2cccc(Cl)c2c(=O)n1-c1cccc(NC(=O)Nc2ccccc2C#N)c1` [Compound 106, (S)-1-(3-(2-(1-((6-amino-5-cyanopyrimidin-4-yl)amino)ethyl)-5-chloro-4-oxoquinazolin-3(4H)-yl)phenyl)-3-(2-cyanophenyl)urea], the IC50 in assay [1] is 20 nM; in assay [2], 4800 nM; in assay [3] it was more than 10000 nM.

With `Cc1ccccc1NC(=O)Nc1cccc(-n2c([C@H](C)Nc3ncnc(N)c3C#N)nc3cccc(Cl)c3c2=O)c1` [Compound 107, (S)-1-(3-(2-(1-((6-amino-5-cyanopyrimidin-4-yl)amino)ethyl)-5-chloro-4-oxoquinazolin-3(4H)-yl)phenyl)-3-(o-tolyl)urea], the results for the IC50 in assay [1], in assay [2] and in assay [3] (setting [4]) were 6 nM, 16 nM and 1500 nM, respectively.

As for `C[C@H](Nc1ncnc(N)c1C#N)c1nc2cccc(F)c2c(=O)n1-c1cccc(NC(=O)Nc2ccccc2Cl)c1` [Compound 108, (S)-1-(3-(2-(1-((6-amino-5-cyanopyrimidin-4-yl)amino)ethyl)-5-fluoro-4-oxoquinazolin-3(4H)-yl)phenyl)-3-(2-chlorophenyl)urea], the IC50 in assay [1] came to 24 nM; in assay [2], 3 nM; in assay [3] (setting [4]), 8500 nM.

As for `COc1ccccc1NC(=O)Nc1cccc(-n2c([C@H](C)Nc3ncnc(N)c3C#N)nc3cccc(Cl)c3c2=O)c1` [Compound 109, (S)-1-(3-(2-(1-((6-amino-5-cyanopyrimidin-4-yl)amino)ethyl)-5-chloro-4-oxoquinazolin-3(4H)-yl)phenyl)-3-(2-methoxyphenyl)urea], the values for the IC50 in assay [1], in assay [2] and in assay [3] (setting [4]) were 2 nM, 9 nM and 2600 nM, respectively.

Turning to `C[C@H](Nc1ncnc(N)c1C#N)c1nc2cccc(F)c2c(=O)n1-c1cccc(NC(=O)Nc2ccccc2C(F)(F)F)c1` [Compound 110, (S)-1-(3-(2-(1-((6-amino-5-cyanopyrimidin-4-yl)amino)ethyl)-5-fluoro-4-oxoquinazolin-3(4H)-yl)phenyl)-3-(2-(trifluoromethyl)phenyl)urea], the results for the IC50 in assay [1], in assay [2] and in assay [3] (setting [4]) were 57 nM, 16 nM and more than 10000 nM, respectively.

Turning to `C[C@H](Nc1ncnc(N)c1C#N)c1nc2cccc(Cl)c2c(=O)n1-c1cccc(NC(=O)Nc2ccncc2Cl)c1` [Compound 111, (S)-1-(3-(2-(1-((6-amino-5-cyanopyrimidin-4-yl)amino)ethyl)-5-chloro-4-oxoquinazolin-3(4H)-yl)phenyl)-3-(3-chloropyridin-4-yl)urea, trifluoroacetic acid salt], the IC50 in assay [1] turned out to be 7 nM; in assay [2], 4 nM; in assay [3] (setting [4]), 4300 nM.
